Patent publication US4897394A, “Antiviral combinations” (Burroughs Wellcome CO., priority 1986, dated 1990)

Assays:
[1] = tested on: herpes simplex type 1 (KOS strain); experiment: Plaque reduction assay in Vero cells infected with herpes simplex type 1 (KOS strain); assay type: cell-based; settings: single agent; for Average Plaque Count: controls = 480
Protocol: The antiviral activity was determined using a plaque reduction assay. Petri plates were seeded with Vero cells which were then allowed to grow to confluency. […] The inhibitors, either alone or in the indicated combinations, were dissolved to give the indicated concentrations in minimal essential medium containing 2% heat inactivated fetal calf serum and 0.5% human immune serum globulin. One hour after infection the solutions (10 ml per plate) were added to the cultures. Three days later the cultures were foramlin-fixed and stained with crystal violet, and the plaques were counted.

[2] = Acute toxicity (LD50), mice, oral; settings: mouse, in vivo
Description: (§1) The LD50 values for acyclovir, dilazep and dipyridamole, referred to above are as follows: […]

[3] = Acute toxicity (LD50), rats, oral; settings: rat, in vivo
Description: as §1

[4] = Human alphaherpesvirus 1, Vero, Conc. 1.0 μM
[5] = Human alphaherpesvirus 1, Vero, Conc. 5.0 μM

SMILES	Average Plaque Count ([1]; Conc. 1.0 μM)	Average Plaque Count ([1]; Conc. 5.0 μM)	inhibition at 1 µM [1, 4] [%]	inhibition at 5 µM [1, 5] [%]	further results
Nc1nc2c(ncn2COCCO)c(=O)[nH]1 [ACV, 9-[(2-hydroxyethoxy)methyl]guanine]	279.5	29.5	41.8	93.8	Average Plaque Count ([1]; Conc. 2.5 μM): 133.5; inhibition at 2.5 µM ([1]; Human alphaherpesvirus 1, Vero, Conc. 2.5 μM): 72.3%; LD50 ([2]; mice oral): > 10000 mg/kg
O=[N+]([O-])c1ccc(CSc2ncnc3c2ncn3[C@@H]2O[C@H](CO)[C@@H](O)[C@H]2O)cc1 [Compound A, 6-[(4-nitrobenzyl)thio]-9-(β-D-ribofuranosyl)purine]					Average Plaque Count ([1]; Conc. 2.0 μM): 484.0; inhibition at 2 µM ([1]; Human alphaherpesvirus 1, Vero, Conc. 2.0 μM): 0%
COc1cc(C(=O)OCCCN2CCCN(CCCOC(=O)c3cc(OC)c(OC)c(OC)c3)CC2)cc(OC)c1OC [Dilazep]	442.0		8		LD50 ([2]; male mice, oral): 3740 mg/kg
OCCN(CCO)c1nc(N2CCCCC2)c2nc(N(CCO)CCO)nc(N3CCCCC3)c2n1 [Dipyridamole]		474.0		1	LD50 [3]: 8400 mg/kg
